ChEMBL document CHEMBL3044579, “Modified benzoxazinones in the system Oryza sativa-Echinochloa crus-galli: an approach to the development of biorational herbicide models” (J Agric Food Chem, 2008)

Key:
Echinochloa crus-galli [1] = assay: Herbicidal activity against Echinochloa crus-galli (barnyard grass) seeds assessed as inhibition of root growth at 25 degC measured after 5 days; assay type: functional, organism-based; settings: 120 h
Oryza sativa = assay: Phytotoxic activity against Oryza sativa (rice) seeds assessed as inhibition of root growth at 25 degC measured after 7 days by crop selectivity assay; assay type: organism-based; settings: L., 168 h
[2] = Selectivity index, ratio of IC50 for Oryza sativa L. seeds to IC50 for Echinochloa crus-galli L. seeds
Echinochloa crus-galli [3] = assay: Ratio of propanil IC50 to compound IC50 for Echinochloa crus-galli (barnyard grass) seeds measured after 5 days; assay type: functional
[4] = Phytotoxic activity against Oryza sativa (rice) seeds assessed as inhibition of root growth at 48 uM at 25 degC measured after 7 days by crop selectivity assay; assay type: organism-based, L.; settings: read-out: GI
Echinochloa crus-galli [5] = assay: Herbicidal activity against Echinochloa crus-galli (barnyard grass) seeds assessed as inhibition of root growth at 48 uM at 25 degC measured after 5 days; assay type: functional; settings: 120 h, read-out: GI

CCCCCCCCCCC(=O)ON1C(=O)COc2ccccc21 [UNDEC-D-DIBOA]
IC50 (Echinochloa crus-galli [1]): 422 µM

O=C1COc2ccccc2N1O
IC50 (Oryza sativa): 149 µM | Ratio IC50 [2]: 0.6 | IC50 (Echinochloa crus-galli [1]): 234 µM

CC1Oc2ccccc2N(O)C1=O [2-Methyl-D-DIBOA]
IC50 (Oryza sativa): 483 µM | Ratio IC50 [2]: 1.62 | IC50 (Echinochloa crus-galli [1]): 298 µM

CCC(=O)Nc1ccc(Cl)c(Cl)c1 [PROPANIL]
IC50 (Echinochloa crus-galli [1]): 114 µM

CCCCC1Oc2ccccc2N(O)C1=O [2-Butyl-D-DIBOA]
IC50 (Oryza sativa): 417 µM | Ratio IC50 [2]: 2.21 | IC50 (Echinochloa crus-galli [1]): 189 µM

CCCCCCCCCCCCCC(=O)ON1C(=O)COc2ccccc21 [MIR-D-DIBOA]
IC50 (Echinochloa crus-galli [1]): 206 µM

CCC1Oc2ccccc2N(O)C1=O [2-Ethyl-D-DIBOA]
Ratio IC50 (Echinochloa crus-galli [3]): 3 | inhibition at 168 h, 48 µM [4]: 20% | inhibition of growth at 48 µM (Echinochloa crus-galli [5]): 50% | IC50 (Oryza sativa): 326 µM | Ratio IC50 [2]: 8.35 | IC50 (Echinochloa crus-galli [1]): 39 µM

CCCCCCCCCCCC(=O)ON1C(=O)COc2ccccc21 [LAU-DIBOA]
IC50 (Echinochloa crus-galli [1]): 170 µM

CCCCCCCCCCCCC(=O)ON1C(=O)COc2ccccc21 [TRIDEC-D-DIBOA]
IC50 (Echinochloa crus-galli [1]): 359 µM

CCCC1Oc2ccccc2N(O)C1=O [2-Propyl-D-DIBOA]
IC50 (Oryza sativa): 331 µM | Ratio IC50 [2]: 2.05 | IC50 (Echinochloa crus-galli [1]): 162 µM

CCCCCCCC(=O)ON1C(=O)COc2ccccc21 [OCT-D-DIBOA]
IC50 (Echinochloa crus-galli [1]): 448 µM

CCCCCCC(=O)ON1C(=O)COc2ccccc21 [HEPT-D-DIBOA]
IC50 (Echinochloa crus-galli [1]): 537 µM

CCCCCCCCC(=O)ON1C(=O)COc2ccccc21 [NON-D-DIBOA]
IC50 (Echinochloa crus-galli [1]): 1440 µM

CCCCCCC1Oc2ccccc2N(O)C1=O [2-Hexyl-D-DIBOA]
IC50 (Oryza sativa): 9880 µM | Ratio IC50 [2]: 1.77 | IC50 (Echinochloa crus-galli [1]): 5590 µM

O=C1C(c2ccccc2)Oc2ccccc2N1O [2-Phenyl-D-DIBOA]
IC50 (Oryza sativa): 603 µM | Ratio IC50 [2]: 2.96 | IC50 (Echinochloa crus-galli [1]): 204 µM

CCCCC(=O)ON1C(=O)COc2ccccc21 [VAL-D-DIBOA]
IC50 (Echinochloa crus-galli [1]): 1150 µM

CC(=O)ON1C(=O)COc2ccccc21 [ABOA]
IC50 (Echinochloa crus-galli [1]): 7180 µM

CCCCCC(=O)ON1C(=O)COc2ccccc21 [HEX-D-DIBOA]
IC50 (Echinochloa crus-galli [1]): 1200 µM

CCC(=O)ON1C(=O)COc2ccccc21 [PR-D-DIBOA]
IC50 (Echinochloa crus-galli [1]): 1090 µM

CCOC(=O)C1Oc2ccccc2N(O)C1=O [2-Ethoxycarbonyl-D-DIBOA]
IC50 (Oryza sativa): 1460 µM | Ratio IC50 [2]: 5.03 | IC50 (Echinochloa crus-galli [1]): 290 µM

CCCC(=O)ON1C(=O)COc2ccccc21 [BU-D-DIBOA]
IC50 (Echinochloa crus-galli [1]): 2440 µM

CCCCCCCCCC(=O)ON1C(=O)COc2ccccc21 [DEC-D-DIBOA]
IC50 (Echinochloa crus-galli [1]): 107 µM

CCOC(=O)C1(C)Oc2ccccc2N(O)C1=O [2-Ethoxycarbonyl-2-methyl-D-DIBOA]
IC50 (Oryza sativa): 2890 µM | Ratio IC50 [2]: 4.42 | IC50 (Echinochloa crus-galli [1]): 654 µM
